The source of these data is paper PMC11851451 (2025).

Molecules are shown by their SMILES.

Test [1] concerns TTAA hairpin, 5'-biotin (SPR) (DNA, hairpin) CGTTAAGCTTTCTTAACG
The test is described as follows: biosensor SPR, steady-state fit. As to conditions: Na+ 100 mM (Table 1 note 10 mM); 50 mM Tris-HCl, 1 mM EDTA, 0.05% P20, pH 7.4.

The test system of test [2] is AATT hairpin, 5'-biotin (SPR) (DNA, hairpin) CGAAATTGCCTCTGCAATTCG
The test is described as follows: biosensor SPR, steady-state one-site fit. As to conditions: Na+ 100 mM (Table 1 note 10 mM), 50 mM Tris-HCl, 1 mM EDTA.

The subject of test [3] is TTAA hairpin (ESI-MS, CD) (DNA, hairpin) CGTTAAGCTTTCTTAACG
The test is described as follows: competition ESI-MS. As to conditions: NH4+ 100 mM (ammonium acetate); 10% methanol, pH 6.8; AATT and TTAA 10 μM each, compound 20 μM.

Test [4] deals with TATA hairpin, 5'-biotin (SPR) (DNA, hairpin) CCTATAGTTTTCTATAGG
As to the kind of experiment: biosensor SPR, steady-state fit. As to conditions: Na+ 100 mM (Table 1 note 10 mM); 50 mM Tris-HCl, 1 mM EDTA, 0.05% P20, pH 7.4.

For test [5], the system named is AATT hairpin (ESI-MS, CD) (DNA, hairpin) CGAAATTGCCTCTGCAATTCG
The test is described as follows: competition ESI-MS. As to conditions: NH4+ 100 mM (ammonium acetate); 10% methanol, pH 6.8; AATT and TTAA 10 μM each, compound 20 μM.

For test [6], the system named is TTAA hairpin (ESI-MS, CD) (DNA, hairpin) CGTTAAGCTTTCTTAACG
As to the kind of experiment: circular dichroism titration. As to conditions: Na+ 100 mM; 50 mM Tris-HCl, 1 mM EDTA, pH 7.4, 25 °C; DNA 5 μM.

Test [7] has as its system AATT hairpin, 5'-biotin (SPR) (DNA, hairpin) CGAAATTGCCTCTGCAATTCG
As to the kind of experiment: biosensor SPR, one-site kinetic fit. As to conditions: Na+ 100 mM (Table 1 note 10 mM); 50 mM Tris-HCl, 1 mM EDTA, 0.05% P20, pH 7.4.

Test [8] deals with TATA hairpin, 5'-biotin (SPR) (DNA, hairpin) CCTATAGTTTTCTATAGG
The test is described as follows: biosensor SPR. As to conditions: Na+ 100 mM (Table 1 note 10 mM); printed as 'Very weak binder'; 50 mM Tris-HCl, 1 mM EDTA, 0.05% P20, pH 7.4; up to 1000 nM.

In test [9] the test system is d(5'-GCTGCGTTAACGCAGC-3')2 (DNA, duplex) GCTGCGTTAACGCAGC
The test is described as follows: X-ray crystallography, 1.5 Å. As to conditions: Ca2+ 600 mM (CaCl2, well); HEPES, PEG 400; antiparallel stacked dimer in minor groove.

For test [10] the test system is unchanged. The test is described as follows: X-ray crystallography, low resolution. As to conditions: antiparallel stacked dimer in minor groove; not deposited.
In test [11] the test system is TTAA hairpin, 5'-biotin (SPR) (DNA, hairpin) CGTTAAGCTTTCTTAACG
As to the kind of experiment: biosensor SPR, steady-state two-site fit. As to conditions: Na+ 100 mM; 50 mM Tris-HCl, 1 mM EDTA, pH 7.4; site 1 of 2; KA2 5.5 × 10^6; Table 1 KA 6.9 × 10^6.

In test [12] the test system is TATA hairpin, 5'-biotin (SPR) (DNA, hairpin) CCTATAGTTTTCTATAGG
As to the kind of experiment: biosensor SPR, steady-state two-site fit. As to conditions: Na+ 100 mM; 50 mM Tris-HCl, 1 mM EDTA, pH 7.4; site 1 of 2; KA2 2.6 × 10^6; Table 1 KA 4.2 × 10^6.

The test system of test [13] is AATT hairpin, 5'-biotin (SPR) (DNA, hairpin) CGAAATTGCCTCTGCAATTCG
The test is described as follows: biosensor SPR, one-site fit. As to conditions: Na+ 100 mM (Table 1 note 10 mM); 50 mM Tris-HCl, 1 mM EDTA, 0.05% P20, pH 7.4.

Regarding `N=C(N)c1ccc2nc(-c3ccc(-c4ccc(C(=N)N)o4)s3)[nH]c2c1`, the KA in [1] is 1e+06 M⁻¹; in test [2] (0.05% P20, pH 7.4 buffer, text b17 prints 3.0 × 10^7), 3.5e+07 M⁻¹; in [4], 700000 M⁻¹. Also, the binding result in [3] is given as “weak”; in [5], “yes”; in test [6] it was “yes”.

With `N=C(N)c1ccc2cc(-c3ccc(-c4ccc(C(=N)N)s4)o3)[nH]c2c1`, in test [2] (0.05% P20, pH 7.4), the KA worked out at 6.5e+06 M⁻¹. For the same molecule, in [6], the binding result was “yes”.

For `N=C(N)c1ccc2cc(-c3ccc(-c4ccc(C(=N)N)o4)s3)[nH]c2c1`, the KA in [1] was found to be 2.8e+06 M⁻¹; in test [2] (0.05% P20, pH 7.4), 6.7e+07 M⁻¹; in test [4] it was 5.2e+06 M⁻¹.

With `N=C(N)c1ccc2cc(-c3ccc(-c4ccc(C(=N)N)o4)o3)[nH]c2c1`, in test [2] (0.05% P20, pH 7.4), the KA was 7.3e+06 M⁻¹. Further, the binding entry in [6] is listed as “yes”.

Take `N=C(N)c1ccc2[nH]c(-c3ccc(-c4ccc(C(=N)N)s4)s3)nc2c1`: the KA was 2.4e+08 M⁻¹ in test [7] and 1.6e+06 M⁻¹ in test [1]. Moreover, the binding entry in test [3] is listed as “weak”; in [8], “weak”; in test [5], “yes”; in test [6], “yes”.

For the molecule `N=C(N)c1ccc2[nH]c(-c3ccc(-c4ccc(C(=N)N)s4)o3)nc2c1`, the binding result is “yes” in test [9], “yes” in [3], “weak” in [5] and “yes” in test [6]. The KA in test [2] (0.05% P20, pH 7.4) amounted to 6.2e+06 M⁻¹.

`N=C(N)c1ccc2[nH]c(-c3ccc(-c4ccc(C(=N)N)o4)o3)nc2c1` registered a KA in test [2] (0.05% P20, pH 7.4) of 2.1e+06 M⁻¹. Further, the binding entry in test [3], in test [10] and in test [6] was “yes” in each case.

As for `N=C(N)c1ccc2cc(-c3ccc(-c4ccc(C(=N)N)s4)s3)[nH]c2c1`, the figures for the KA1 in test [11] and in test [12] were 8.8e+06 M⁻¹ and 6.9e+06 M⁻¹, respectively. The molecule also had a KA in [13] of 1.5e+08 M⁻¹.
